Source: US10316020B2, “Indane derivatives and the use thereof as soluble guanylate cyclase activators” (NOVARTIS AG, priority 2015, dated 2019)

biological target: T1, soluble guanylate cyclase (GUCYA3/GUCYB3) overexpressed in CHO cells (Homo sapiens, UniProt Q02108+Q02153); experiment: CHO cellular assay (cGMP production, HTRF); format: cell-based; conditions: CHO GUCY clone 8E10; assay buffer with 1 mM IBMX, 20 uM ODQ; 1 h at room temperature; cGMP HTRF; quantification limit 0.0005 μM; read-out: Mean EC50
T1 construct: expressed in transfected cells
T1 sequence (Q02108 1-690 partner): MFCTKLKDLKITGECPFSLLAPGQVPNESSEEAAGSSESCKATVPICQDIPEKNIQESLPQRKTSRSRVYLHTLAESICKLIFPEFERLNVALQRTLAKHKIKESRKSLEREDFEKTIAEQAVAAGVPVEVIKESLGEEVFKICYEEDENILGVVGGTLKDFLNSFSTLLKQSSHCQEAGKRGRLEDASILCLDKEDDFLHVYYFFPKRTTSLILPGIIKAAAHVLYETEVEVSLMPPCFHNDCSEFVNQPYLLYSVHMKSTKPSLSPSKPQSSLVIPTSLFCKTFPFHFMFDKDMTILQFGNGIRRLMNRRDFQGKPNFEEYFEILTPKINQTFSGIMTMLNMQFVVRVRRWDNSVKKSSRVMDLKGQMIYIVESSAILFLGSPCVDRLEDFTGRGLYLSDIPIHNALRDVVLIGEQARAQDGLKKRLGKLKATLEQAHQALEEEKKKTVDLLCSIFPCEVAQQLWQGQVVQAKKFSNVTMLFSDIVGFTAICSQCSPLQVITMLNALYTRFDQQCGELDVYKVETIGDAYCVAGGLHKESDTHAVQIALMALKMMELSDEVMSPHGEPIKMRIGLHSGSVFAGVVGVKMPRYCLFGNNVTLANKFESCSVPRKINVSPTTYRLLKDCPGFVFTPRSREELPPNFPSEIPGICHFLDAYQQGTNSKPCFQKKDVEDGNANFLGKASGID
T1 sequence (Q02153 1-619): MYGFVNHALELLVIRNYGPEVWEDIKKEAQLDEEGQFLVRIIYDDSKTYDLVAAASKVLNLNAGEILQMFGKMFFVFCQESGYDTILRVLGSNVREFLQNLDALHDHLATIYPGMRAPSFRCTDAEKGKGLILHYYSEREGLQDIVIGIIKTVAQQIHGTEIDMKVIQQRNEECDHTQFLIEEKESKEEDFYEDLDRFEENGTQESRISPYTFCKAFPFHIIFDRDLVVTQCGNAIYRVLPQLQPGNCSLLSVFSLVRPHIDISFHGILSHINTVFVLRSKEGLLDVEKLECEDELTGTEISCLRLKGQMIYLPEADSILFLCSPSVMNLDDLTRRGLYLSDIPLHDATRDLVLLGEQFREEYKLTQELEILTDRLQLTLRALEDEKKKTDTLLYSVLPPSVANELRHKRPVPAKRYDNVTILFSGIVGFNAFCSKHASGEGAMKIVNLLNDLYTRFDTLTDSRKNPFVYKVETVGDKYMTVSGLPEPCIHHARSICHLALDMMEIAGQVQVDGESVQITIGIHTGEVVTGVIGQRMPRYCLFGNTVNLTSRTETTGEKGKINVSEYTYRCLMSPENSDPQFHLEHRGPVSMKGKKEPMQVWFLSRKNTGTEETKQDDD
Description: Chinese hamster ovary (CHO) cells overexpressing soluble guanylate cyclase were generated to test the effect of sGC activators in a cellular context. Human cDNAs for GUCYA3 (RefSeq: NM_000856.3) and GUCYB3 (RefSeq: NM_000857.1) were amplified by PCR from a HUVEC (Human Umbilical Vein Endothelial Cells) cDNA library and cloned into mammalian expression vectors. CHO K1 cells (ATCC CCL-61) were transfected using Lipofectamine 2000 following manufacturer's instructions and stably expressing clones were identified by antibiotic selection. CHO GUCY clone 8E10 was used for subsequent experiments.
Cells were seeded at a density of 3000 cells/well in white 384-well proxyplates (Perkin Elmer) and incubated overnight, then the medium was removed and cells were washed with assay buffer (HBSS, 0.1% BSA, 1 mM IBMX, 20 uM ODQ). sGC activators were serially diluted in DMSO, then diluted in assay buffer prior to adding to cells (10 ul/well, final DMSO concentration 0.5%). Cells were incubated with compounds for 1 h at room temperature, then assayed for cGMP production using Cisbio cGMP HTRF kit (62GM2PEC) according to manufacturer's instructions.
The EC50s are calculated based on the amount of cGMP interpolated from the standard curve, using a 4-parameter sigmoidal dose-response.
Compounds of invention are active on sGC activation. Data in Table 1 collected using the assay of Biological Example 1.

SMILES | EC50 [nM]
CCc1nc(NC2CCc3cccc(-c4cccc(-n5ncc(C(=O)O)c5OC)c4)c32)ccc1C1=CCN(C(=O)[C@H](C)O)CC1 (single isomer, unassigned) [Example 11A, 1-(3-((S or R)-3-((2-Ethyl-1′-((S)-2-hydroxypropanoyl)-1′,2′,3′,6′-tetrahydro-[3,4′-bipyridin]-6-yl)amino)-2,3-dihydro-1H-inden-4-yl)phenyl)-5-methoxy-1H-pyrazole-4-carboxylic acid] | 36
CCc1nc(NC2CCc3cccc(-c4cccc(-n5ncc(C(=O)O)c5OC)c4)c32)ccc1C1=CCN(C(=O)[C@H](C)O)CC1 (single isomer, unassigned) [Example 11B, 1-(3-((R or S)-3-((2-ethyl-1′-((S)-2-hydroxypropanoyl)-1′,2′,3′,6′-tetrahydro-[3,4′-bipyridin]-6-yl)amino)-2,3-dihydro-1H-inden-4-yl)phenyl)-5-methoxy-1H-pyrazole-4-carboxylic acid] | 1.4
CCc1nc(NC2CCc3cccc(-c4cccc(-n5ncc(C(=O)O)c5OC)n4)c32)ccc1C1=CCN(C(=O)[C@H](C)O)CC1 (single isomer, unassigned) [Example 17A, 1-(6-((R or S)-3-((2-ethyl-1′-((S)-2-hydroxypropanoyl)-1′,2′,3′,6′-tetrahydro-[3,4′-bipyridin]-6-yl)amino)-2,3-dihydro-1H-inden-4-yl)pyridin-2-yl)-5-methoxy-1H-pyrazole-4-carboxylic acid] | 71
CCc1nc(NC2CCc3cccc(-c4cccc(-n5ncc(C(=O)O)c5OC)n4)c32)ccc1C1=CCN(C(=O)[C@H](C)O)CC1 (single isomer, unassigned) [Example 17B, 1-(6-((S or R)-3-((2-ethyl-1′-((S)-2-hydroxypropanoyl)-1′,2′,3′,6′-tetrahydro-[3,4′-bipyridin]-6-yl)amino)-2,3-dihydro-1H-inden-4-yl)pyridin-2-yl)-5-methoxy-1H-pyrazole-4-carboxylic acid] | 3.5
CCc1cc(NC2CCc3cccc(-c4ccc(C)c(-n5ncc(C(=O)O)c5OC)c4)c32)ccc1C1CCN(C(=O)C2CC2)CC1 (single isomer, unassigned; (+)) [Example 7A, (+)-1-(5-(3-((4-(1-(Cyclopropanecarbonyl)piperidin-4-yl)-3-ethylphenyl)amino)-2,3-dihydro-1H-inden-4-yl)-2-methylphenyl)-5-methoxy-1H-pyrazole-4-carboxylic acid] | < 0.5
CCc1cc(NC2CCc3cccc(-c4ccc(OC)c(-n5ncc(C(=O)O)c5OC)c4)c32)ccc1C1CCN(C(=O)C2CC2)CC1 (single isomer, unassigned; (+)) [Example 8A, (+)-1-(5-(3-((4-(1-(Cyclopropanecarbonyl)piperidin-4-yl)-3-ethylphenyl)amino)-2,3-dihydro-1H-inden-4-yl)-2-methoxyphenyl)-5-methoxy-1H-pyrazole-4-carboxylic acid] | < 0.5
CCc1cc(NC2CCc3cccc(-c4cccc(-n5ncc(C(=O)O)c5N)c4)c32)ccc1C1CCN(C(=O)C2CC2)CC1 (single isomer, unassigned; (+)) [Example 9A, (+)-5-Amino-1-(3-(3-((4-(1-(cyclopropanecarbonyl)piperidin-4-yl)-3-ethylphenyl)amino)-2,3-dihydro-1H-inden-4-yl)phenyl)-1H-pyrazole-4-carboxylic acid] | 4
CCc1nc(NC2CCc3cccc(-c4cccc(-n5ncc(C(=O)O)c5OC)c4)c32)ccc1C1=CCN(C(=O)C2CC2)CC1 (single isomer, unassigned; (+)) [Example 10A, (+)-1-(3-(3-((1′-(Cyclopropanecarbonyl)-2-ethyl-1′,2′,3′,6′-tetrahydro-[3,4′-bipyridin]-6-yl)amino)-2,3-dihydro-1H-inden-4-yl)phenyl)-5-methoxy-1H-pyrazole-4-carboxylic acid] | < 0.5
CCc1nc(NC2CCc3cccc(-c4cccc(-n5ncc(C(=O)O)c5OC)n4)c32)ccc1C1=CCN(C(=O)C2CC2)CC1 (single isomer, unassigned; (+)) [Example 16A, (+)-1-(6-(3-((1′-(Cyclopropanecarbonyl)-2-ethyl-1′,2′,3′,6′-tetrahydro-[3,4′-bipyridin]-6-yl)amino)-2,3-dihydro-1H-inden-4-yl)pyridin-2-yl)-5-methoxy-1H-pyrazole-4-carboxylic acid] | < 0.5
CCc1nc(NC2CCc3cccc(-c4cccc(-n5ncc(C(=O)O)c5NC)c4)c32)ccc1C1=CCN(C(=O)C2CC2)CC1 (single isomer, unassigned; (+)) [Example 22A, (+)-1-(3-(3-((1′-(Cyclopropanecarbonyl)-2-ethyl-1′,2′,3′,6′-tetrahydro-[3,4′-bipyridin]-6-yl)amino)-2,3-dihydro-1H-inden-4-yl)phenyl)-5-(methylamino)-1H-pyrazole-4-carboxylic acid] | < 0.5
CCc1cc(NC2CCc3cccc(-c4cccc(-n5ncc(C(=O)O)c5OC)c4)c32)ccc1C1CCN(C(=O)[C@H](C)O)CC1 (single isomer, unassigned; (-)) [Example 4B] | 110
CCc1cc(NC2CCc3cccc(-c4ccc(C)c(-n5ncc(C(=O)O)c5OC)c4)c32)ccc1C1CCN(C(=O)C2CC2)CC1 (single isomer, unassigned; (-)) [Example 7B, (−)-1-(5-(3-((4-(1-(Cyclopropanecarbonyl)piperidin-4-yl)-3-ethylphenyl)amino)-2,3-dihydro-1H-inden-4-yl)-2-methylphenyl)-5-methoxy-1H-pyrazole-4-carboxylic acid] | 2
CCc1cc(NC2CCc3cccc(-c4ccc(OC)c(-n5ncc(C(=O)O)c5OC)c4)c32)ccc1C1CCN(C(=O)C2CC2)CC1 (single isomer, unassigned; (-)) [Example 8B, (−)-1-(5-(3-((4-(1-(Cyclopropanecarbonyl)piperidin-4-yl)-3-ethylphenyl)amino)-2,3-dihydro-1H-inden-4-yl)-2-methoxyphenyl)-5-methoxy-1H-pyrazole-4-carboxylic acid] | 86
CCc1cc(NC2CCc3cccc(-c4cccc(-n5ncc(C(=O)O)c5N)c4)c32)ccc1C1CCN(C(=O)C2CC2)CC1 (single isomer, unassigned; (-)) [Example 9B, (−)-5-Amino-1-(3-(3-((4-(1-(cyclopropanecarbonyl)piperidin-4-yl)-3-ethylphenyl)amino)-2,3-dihydro-1H-inden-4-yl)phenyl)-1H-pyrazole-4-carboxylic acid] | 58
CCc1nc(NC2CCc3cccc(-c4cccc(-n5ncc(C(=O)O)c5OC)c4)c32)ccc1C1=CCN(C(=O)C2CC2)CC1 (single isomer, unassigned; (-)) [Example 10B, (−)-1-(3-(3-((1′-(Cyclopropanecarbonyl)-2-ethyl-1′,2′,3′,6′-tetrahydro-[3,4′-bipyridin]-6-yl)amino)-2,3-dihydro-1H-inden-4-yl)phenyl)-5-methoxy-1H-pyrazole-4-carboxylic acid] | 149
